The IC50 is the midpoint of a concentration-inhibition curve. What is called IC90 is the concentration needed for an effect of 90%. Read a low IC90 as greater potency. One may read the CC50 as the concentration at which the toxic effect on the cells reaches its halfway point. A higher CC50 goes with better tolerance by the cells.

The subject of this test is M. tuberculosis H37Rv growth inhibition. As to the kind of experiment: M. tuberculosis H37Rv growth inhibitors, H37Rv strain (AID 1626). To be noted: for IC90: measured here: IC90 against H37Rv; for CC50: measured here: Vero cell cytotoxicity.

Regarding `O=C(Nc1nnc(-c2ccncc2)o1)c1ccc(Br)s1`, the IC50 was 15 µM, the IC90 is 29.7 µM and the CC50 is 20.6 µM.
On to `COc1ccccc1C(=O)Nc1nnc(-c2ccc(Cl)cc2)o1`, for which the 50% inhibitory concentration (IC50) was 16.9 µM, the IC90 is over 100 µM and the CC50 was over 40 µM.
The corresponding values for `Cc1cc(NC(=O)C2CCCCC2)n(-c2nc3ccccc3[nH]2)n1` are 2.54 µM, 5.5 µM and 38 µM.
For the molecule `CC(=O)OCCNc1cc(SCc2ccco2)c2nonc2c1[N+](=O)[O-]`, the IC50 was 0.657 µM and the IC90 was determined as 1.66 µM.
The corresponding values for `Cn1c(COc2cccc3ccccc23)nnc1SCC(=O)OC1CCCCC1` are 2.3 µM and 6.77 µM.
Consider `COc1ccc(/C=c2\s/c(=C\C(=O)C(C)(C)C)[nH]c2=O)cc1O`, for which the IC50 was 5.62 µM, the IC90 came to 7.63 µM and the CC50 came to 25.3 µM.
The corresponding values for `CCOC(=O)c1cnn(-c2nc3c(C)cccc3s2)c1C(F)(F)F` are 54.6 µM, over 100 µM and over 40 µM.
The corresponding values for `O=C1C=C(Nc2ccccc2)C(=O)c2ccccc21` are 11.7 µM, 13.4 µM and over 40 µM.
The corresponding values for `CCSc1nnc(NC(=O)c2ccccn2)s1` are 0.315 µM, 0.466 µM and 8.14 µM.
`O=C(/C=C/c1ccccc1)CC(=O)c1ccccc1O`: the IC50 was 23.7 µM, the IC90 was over 100 µM and the CC50 is over 40 µM.
The corresponding values for `COc1cccc(CNCCc2c[nH]c3ccccc23)c1OCc1ccccc1F` are 7.08 µM, 11.3 µM and 14.4 µM.
The corresponding values for `N#CCc1ccc(NC(=O)/C=C/c2ccc([N+](=O)[O-])o2)cc1` are under 0.391 µM, under 0.391 µM and 0.277 µM.
As for `CC1CC(C)(C)Nc2ccc(OC(=O)c3ccco3)cc21` (stereo unspecified), the IC50 is 15.9 µM, the IC90 was 22.2 µM and the CC50 is over 40 µM.
Regarding `CCCCCc1cc(=O)oc2c(C(CCN3CCCC(C)C3)c3cc(OC)c(OC)c(OC)c3)c(OC)cc(OC)c12` (stereo unspecified), the IC50 is 7.65 µM, the IC90 was found to be 9.84 µM and the CC50 was found to be 14.5 µM.
Turning to `O=c1[nH]c(=O)n(Cc2ccccc2Cl)c(O)c1/C=C1/C=CC=N1`, the IC50 is under 0.391 µM, the concentration for an effect of 90% (IC90) is 3.23 µM and the CC50 was 27.2 µM.
The corresponding values for `Cc1coc2c1C(=O)C(=O)c1c-2ccc2c(C)cccc12` are 0.336 µM, 0.366 µM and 27.8 µM.
As to `CCOC(=O)c1ccc(-n2c(CN(CC)CC)nc3ccc([N+](=O)[O-])cc3c2=O)cc1`, the IC50 is 54.1 µM and the IC90 was over 100 µM.
The corresponding values for `O=S(=O)(Nc1ccn(-c2ccccc2)n1)c1ccc(Br)cc1` are 30.1 µM and over 100 µM.
For the molecule `Cc1cccc(C(=O)Nc2nnc(-c3ccco3)o2)c1`, the IC50 was 0.695 µM, the IC90 is 3.56 µM and the CC50 came out at 37.1 µM.
The corresponding values for `c1ccc(-c2nc(NCCCn3ccnc3)c3oc4ccccc4c3n2)cc1` are 2.81 µM, 3.16 µM and over 40 µM.
In the case of `O=c1cc(-c2ccccc2)nc(N2CCN(Cc3ccc4c(c3)OCO4)CC2)[nH]1`, the IC50 was 89 µM and the IC90 was over 100 µM.
Turning to `CCCCOC(=O)c1ccc(NC(=O)CSc2nnnn2C)cc1`, the IC50 was 19 µM and the IC90 is over 100 µM.
On to `CC(=O)Nc1sc2c(c1CN1CCN(c3ccc(F)cc3)CC1)CCCC2`, for which the IC50 was 13.2 µM, the IC90 is over 100 µM and the CC50 was over 40 µM.
The corresponding values for `COc1ccc(-c2nnc(SCC(=O)OC3CCCCC3)o2)cc1OC` are under 0.195 µM, 1.04 µM and over 40 µM.

These data come from PubChem BioAssay AID1626 (SRMLSC, 2009).
